Measurements published in patent US9249129B2, “Morpholino substituted urea derivatives as mTOR inhibitors” (CELLZOME LIMITED, priority 2010, dated 2016).

Key:
Assay in all cases: kinobeads assay with mass spectrometry detection of kinases (kinase selectivity profile)
Assay type in all cases: binding
kinases (kinome) [1] = molecular target: T1, kinases (kinome) (Homo sapiens, UniProt P36896); conditions: ALK4 (TKL), IPI00005732
T1 construct: determined in kinobeads assays with mass spectrometry detection of kinases as described previously; endogenous in cells; host or cells: cell lysate
T1 sequence (P36896 24-505): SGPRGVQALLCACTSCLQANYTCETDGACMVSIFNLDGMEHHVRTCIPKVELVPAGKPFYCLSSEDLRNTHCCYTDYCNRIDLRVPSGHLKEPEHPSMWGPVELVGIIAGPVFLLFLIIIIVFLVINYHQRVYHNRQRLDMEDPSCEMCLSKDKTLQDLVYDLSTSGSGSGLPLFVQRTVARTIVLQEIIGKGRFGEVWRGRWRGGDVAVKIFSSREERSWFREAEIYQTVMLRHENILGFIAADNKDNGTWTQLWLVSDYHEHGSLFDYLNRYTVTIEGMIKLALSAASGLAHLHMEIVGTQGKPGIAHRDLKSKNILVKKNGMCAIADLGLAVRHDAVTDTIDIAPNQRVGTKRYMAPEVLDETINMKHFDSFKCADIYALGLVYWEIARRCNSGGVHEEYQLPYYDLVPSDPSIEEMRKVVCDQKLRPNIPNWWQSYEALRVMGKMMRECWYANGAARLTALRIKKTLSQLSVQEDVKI
Description: (§1) The protein kinase complement of the human genome (the kinome) was described previously (Manning et al., 2002. Science 298(5600):1912-1934). Sequence accession numbers are defined by the International Protein Index (IPI) (Kersey et al., 2004. Proteomics 4(7):1985-1988).

kinases (kinome) [2] = molecular target: T2, kinases (kinome) (Homo sapiens, UniProt P45983); conditions: JNK1 (CMGC), IPI00220306
T2 construct: determined in kinobeads assays with mass spectrometry detection of kinases as described previously; endogenous in cells; host or cells: cell lysate
Description: as §1

kinases (kinome) [3] = molecular target: T3, kinases (kinome) (Homo sapiens, UniProt Q92918); conditions: HPK1 (STE), IPI00020258
T3 construct: determined in kinobeads assays with mass spectrometry detection of kinases as described previously; endogenous in cells; host or cells: cell lysate
Description: as §1

kinases (kinome) [4] = molecular target: T4, kinases (kinome) (Homo sapiens, UniProt P06239); conditions: LCK (TK), IPI00515097
T4 construct: determined in kinobeads assays with mass spectrometry detection of kinases as described previously; endogenous in cells; host or cells: cell lysate
Description: as §1

kinases (kinome) [5] = molecular target: T5, kinases (kinome) (Homo sapiens, UniProt Q8TD19); conditions: NEK9 (Other), IPI00301609
T5 construct: determined in kinobeads assays with mass spectrometry detection of kinases as described previously; endogenous in cells; host or cells: cell lysate
T5 sequence (Q8TD19 1-979): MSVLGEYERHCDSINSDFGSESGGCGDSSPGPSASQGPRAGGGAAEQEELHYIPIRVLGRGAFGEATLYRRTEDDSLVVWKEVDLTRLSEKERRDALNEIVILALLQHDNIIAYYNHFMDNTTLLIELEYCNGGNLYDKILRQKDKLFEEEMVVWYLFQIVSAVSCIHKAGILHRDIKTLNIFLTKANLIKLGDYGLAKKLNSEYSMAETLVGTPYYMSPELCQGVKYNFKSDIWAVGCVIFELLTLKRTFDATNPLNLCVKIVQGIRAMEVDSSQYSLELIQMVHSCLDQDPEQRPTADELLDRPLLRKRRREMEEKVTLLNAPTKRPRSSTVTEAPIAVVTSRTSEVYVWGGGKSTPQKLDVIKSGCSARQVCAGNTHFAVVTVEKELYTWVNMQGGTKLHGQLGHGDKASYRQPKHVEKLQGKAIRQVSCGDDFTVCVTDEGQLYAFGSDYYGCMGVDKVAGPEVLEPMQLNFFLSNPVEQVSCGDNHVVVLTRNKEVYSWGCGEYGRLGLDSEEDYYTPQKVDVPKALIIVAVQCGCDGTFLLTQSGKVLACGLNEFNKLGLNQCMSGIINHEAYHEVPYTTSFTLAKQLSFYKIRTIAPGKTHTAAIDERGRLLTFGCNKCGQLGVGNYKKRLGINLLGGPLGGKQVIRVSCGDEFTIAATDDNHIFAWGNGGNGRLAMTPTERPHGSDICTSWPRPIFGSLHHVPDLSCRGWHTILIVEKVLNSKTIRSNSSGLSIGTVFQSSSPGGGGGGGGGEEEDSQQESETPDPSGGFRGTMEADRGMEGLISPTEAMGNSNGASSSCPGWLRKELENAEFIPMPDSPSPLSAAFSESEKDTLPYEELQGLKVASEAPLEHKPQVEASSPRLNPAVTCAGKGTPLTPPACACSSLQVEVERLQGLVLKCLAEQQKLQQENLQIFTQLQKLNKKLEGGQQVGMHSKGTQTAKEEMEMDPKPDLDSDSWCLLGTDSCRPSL
Description: as §1

kinases (kinome) [6] = molecular target: T6, kinases (kinome) (Homo sapiens, UniProt Q2M2I8); conditions: AAK1 (Other), IPI00916402
T6 construct: determined in kinobeads assays with mass spectrometry detection of kinases as described previously; endogenous in cells; host or cells: cell lysate
Description: as §1

kinases (kinome) [7] = molecular target: T7, kinases (kinome) (Homo sapiens, UniProt P48730); conditions: CK1d (CK1), IPI00011102
T7 construct: determined in kinobeads assays with mass spectrometry detection of kinases as described previously; endogenous in cells; host or cells: cell lysate
Description: as §1

kinases (kinome) [8] = molecular target: T8, kinases (kinome) (Homo sapiens, UniProt Q9H2K8); conditions: TAO3 (STE), IPI00410485
T8 construct: determined in kinobeads assays with mass spectrometry detection of kinases as described previously; endogenous in cells; host or cells: cell lysate
T8 sequence (Q9H2K8 1-898): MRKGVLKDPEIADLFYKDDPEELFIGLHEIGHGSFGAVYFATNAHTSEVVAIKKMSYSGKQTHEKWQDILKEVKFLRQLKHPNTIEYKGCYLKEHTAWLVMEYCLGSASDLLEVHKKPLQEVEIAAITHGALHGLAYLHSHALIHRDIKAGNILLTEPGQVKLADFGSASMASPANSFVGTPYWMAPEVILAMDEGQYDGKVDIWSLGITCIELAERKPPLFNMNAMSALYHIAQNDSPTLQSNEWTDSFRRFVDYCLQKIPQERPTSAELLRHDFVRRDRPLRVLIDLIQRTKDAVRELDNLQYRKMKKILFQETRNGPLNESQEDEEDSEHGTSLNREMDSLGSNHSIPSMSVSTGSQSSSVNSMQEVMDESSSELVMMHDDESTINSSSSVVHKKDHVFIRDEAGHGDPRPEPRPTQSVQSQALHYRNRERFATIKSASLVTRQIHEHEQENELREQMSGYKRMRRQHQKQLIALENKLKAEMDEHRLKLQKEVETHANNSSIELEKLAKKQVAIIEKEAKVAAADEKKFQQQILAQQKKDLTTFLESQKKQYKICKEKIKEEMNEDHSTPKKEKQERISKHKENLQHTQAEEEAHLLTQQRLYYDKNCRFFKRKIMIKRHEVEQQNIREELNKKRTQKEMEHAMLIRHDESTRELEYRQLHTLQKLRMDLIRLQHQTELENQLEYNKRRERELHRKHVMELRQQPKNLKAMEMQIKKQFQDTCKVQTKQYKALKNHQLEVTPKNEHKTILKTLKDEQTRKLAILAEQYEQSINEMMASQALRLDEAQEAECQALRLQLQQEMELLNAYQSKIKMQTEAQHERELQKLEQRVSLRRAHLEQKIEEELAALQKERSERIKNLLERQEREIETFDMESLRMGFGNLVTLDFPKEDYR
Description: as §1

Measured: IC50

T6 sequence (Q2M2I8 whole entry): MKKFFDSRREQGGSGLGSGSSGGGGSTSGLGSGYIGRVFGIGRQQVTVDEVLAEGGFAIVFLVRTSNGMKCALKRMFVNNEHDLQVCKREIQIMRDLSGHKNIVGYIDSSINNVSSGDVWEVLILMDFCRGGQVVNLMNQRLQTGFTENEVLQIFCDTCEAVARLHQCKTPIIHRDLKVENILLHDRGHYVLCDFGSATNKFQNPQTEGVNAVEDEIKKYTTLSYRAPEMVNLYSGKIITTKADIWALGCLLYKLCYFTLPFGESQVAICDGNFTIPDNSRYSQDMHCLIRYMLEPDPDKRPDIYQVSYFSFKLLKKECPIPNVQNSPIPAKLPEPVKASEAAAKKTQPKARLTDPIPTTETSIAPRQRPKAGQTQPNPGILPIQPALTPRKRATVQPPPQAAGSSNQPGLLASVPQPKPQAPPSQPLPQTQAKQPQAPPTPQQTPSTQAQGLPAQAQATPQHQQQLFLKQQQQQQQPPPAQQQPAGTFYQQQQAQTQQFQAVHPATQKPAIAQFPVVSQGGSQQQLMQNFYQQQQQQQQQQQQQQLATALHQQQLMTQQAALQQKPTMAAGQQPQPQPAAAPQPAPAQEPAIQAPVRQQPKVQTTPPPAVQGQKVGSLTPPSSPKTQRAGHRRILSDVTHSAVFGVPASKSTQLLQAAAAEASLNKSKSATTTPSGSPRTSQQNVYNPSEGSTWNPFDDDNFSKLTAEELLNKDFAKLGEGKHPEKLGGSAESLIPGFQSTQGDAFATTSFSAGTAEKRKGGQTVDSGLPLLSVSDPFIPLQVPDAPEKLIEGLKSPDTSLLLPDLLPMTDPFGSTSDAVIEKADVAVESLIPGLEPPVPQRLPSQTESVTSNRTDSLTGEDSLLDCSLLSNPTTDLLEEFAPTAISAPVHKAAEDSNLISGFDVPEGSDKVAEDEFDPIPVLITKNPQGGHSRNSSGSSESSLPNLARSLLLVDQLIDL
T2 sequence (P45983 whole entry): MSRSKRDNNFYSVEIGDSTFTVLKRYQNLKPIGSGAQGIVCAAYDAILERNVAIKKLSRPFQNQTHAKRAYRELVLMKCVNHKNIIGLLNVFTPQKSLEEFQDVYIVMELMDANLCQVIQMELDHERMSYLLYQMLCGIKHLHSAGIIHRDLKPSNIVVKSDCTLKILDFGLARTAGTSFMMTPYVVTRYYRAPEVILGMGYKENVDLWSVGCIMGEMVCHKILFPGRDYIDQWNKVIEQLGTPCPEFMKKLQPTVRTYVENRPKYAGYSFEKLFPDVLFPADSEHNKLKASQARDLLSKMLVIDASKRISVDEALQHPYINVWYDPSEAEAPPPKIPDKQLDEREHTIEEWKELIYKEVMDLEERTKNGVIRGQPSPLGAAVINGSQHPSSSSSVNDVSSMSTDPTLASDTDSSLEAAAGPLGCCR
T4 sequence (P06239 whole entry): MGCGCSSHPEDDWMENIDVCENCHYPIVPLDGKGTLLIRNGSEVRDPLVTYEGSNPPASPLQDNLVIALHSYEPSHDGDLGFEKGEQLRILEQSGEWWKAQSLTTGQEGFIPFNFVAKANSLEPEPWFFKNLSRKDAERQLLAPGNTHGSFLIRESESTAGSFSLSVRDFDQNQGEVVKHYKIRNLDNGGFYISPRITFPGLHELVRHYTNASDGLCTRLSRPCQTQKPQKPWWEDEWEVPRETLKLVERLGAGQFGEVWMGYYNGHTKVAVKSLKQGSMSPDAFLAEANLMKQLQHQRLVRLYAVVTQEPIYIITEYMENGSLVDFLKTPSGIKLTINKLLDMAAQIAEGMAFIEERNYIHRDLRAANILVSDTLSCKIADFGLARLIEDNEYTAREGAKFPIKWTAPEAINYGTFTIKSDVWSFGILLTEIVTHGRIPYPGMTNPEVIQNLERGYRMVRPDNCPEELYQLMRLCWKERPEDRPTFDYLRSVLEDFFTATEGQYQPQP
T7 sequence (P48730 whole entry): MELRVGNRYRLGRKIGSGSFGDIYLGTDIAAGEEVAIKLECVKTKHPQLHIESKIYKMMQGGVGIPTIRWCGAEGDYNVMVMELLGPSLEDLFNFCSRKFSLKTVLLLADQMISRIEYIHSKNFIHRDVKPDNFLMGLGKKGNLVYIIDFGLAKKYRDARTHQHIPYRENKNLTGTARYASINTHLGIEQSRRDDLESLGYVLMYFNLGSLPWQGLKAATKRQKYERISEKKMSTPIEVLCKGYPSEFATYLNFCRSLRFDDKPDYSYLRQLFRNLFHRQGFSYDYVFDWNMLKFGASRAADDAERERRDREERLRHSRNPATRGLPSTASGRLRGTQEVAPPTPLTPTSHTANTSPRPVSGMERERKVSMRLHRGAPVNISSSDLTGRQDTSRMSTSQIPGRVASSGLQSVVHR
T3 sequence (Q92918 whole entry): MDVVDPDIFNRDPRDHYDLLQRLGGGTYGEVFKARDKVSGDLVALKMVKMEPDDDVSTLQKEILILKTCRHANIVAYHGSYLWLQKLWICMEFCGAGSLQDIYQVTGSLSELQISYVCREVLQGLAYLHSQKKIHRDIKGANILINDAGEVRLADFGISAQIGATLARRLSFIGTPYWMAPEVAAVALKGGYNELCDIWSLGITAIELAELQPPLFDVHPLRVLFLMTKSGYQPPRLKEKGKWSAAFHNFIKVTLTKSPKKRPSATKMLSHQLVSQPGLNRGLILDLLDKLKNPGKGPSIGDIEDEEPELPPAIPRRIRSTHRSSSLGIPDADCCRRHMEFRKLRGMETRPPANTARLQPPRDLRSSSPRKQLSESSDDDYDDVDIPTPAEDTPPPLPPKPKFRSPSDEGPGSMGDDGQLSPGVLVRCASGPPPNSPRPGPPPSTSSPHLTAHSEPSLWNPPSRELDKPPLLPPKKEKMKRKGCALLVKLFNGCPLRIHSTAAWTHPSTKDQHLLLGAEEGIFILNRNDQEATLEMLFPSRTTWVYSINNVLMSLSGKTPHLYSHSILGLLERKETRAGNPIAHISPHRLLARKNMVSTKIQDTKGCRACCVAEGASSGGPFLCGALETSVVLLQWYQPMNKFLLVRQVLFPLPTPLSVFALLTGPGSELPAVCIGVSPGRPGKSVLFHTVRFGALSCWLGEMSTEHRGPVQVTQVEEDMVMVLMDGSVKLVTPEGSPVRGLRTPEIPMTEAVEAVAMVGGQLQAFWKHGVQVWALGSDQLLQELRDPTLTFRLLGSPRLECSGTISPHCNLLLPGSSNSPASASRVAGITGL

C[C@H]1COCCN1c1nc(-c2ccc(NC(=O)NC3CC3)cc2)cc(-c2ccccc2S(C)(=O)=O)n1 [Example 4, (S)-1-cyclopropyl-3-(4-(2-(3-methylmorpholino)-6-(2-(methylsulfonyl)phenyl)pyrimidin-4-yl)phenyl)urea]
> 10 µM: all assays above

C[C@H]1COCCN1c1cc(-c2ccccc2S(C)(=O)=O)nc(-c2ccc(NC(=O)NC3CC3)cc2)n1 [Example 6, (S)-1-cyclopropyl-3-(4-(4-(3-methylmorpholino)-6-(2-(methylsulfonyl)phenyl)pyrimidin-2-yl)phenyl)urea]
> 10 µM: all assays above

CCNC(=O)Nc1ccc(-c2cc(-c3ccccc3C#N)nc(N3CCOC[C@@H]3C)n2)cc1 [Example 8, (S)-1-(4-(6-(2-cyanophenyl)-2-(3-methylmorpholino)pyrimidin-4-yl)phenyl)-3-ethylurea]
not listed: kinases (kinome) [4]
> 10 µM: all other assays above

C[C@H]1COCCN1c1nc(-c2ccc(NC(=O)NC3CC3)cc2)cc(-c2cc(F)ccc2S(C)(=O)=O)n1 [Example 40, (S)-1-cyclopropyl-3-(4-(6-(5-fluoro-2-(methylsulfonyl)phenyl)-2-(3-methylmorpholino)pyrimidin-4-yl)phenyl)urea]
> 10 µM: all assays above

C[C@H]1COCCN1c1cc(-c2ccccn2)nc(-c2ccc(NC(=O)NCCO)cc2)n1 [Example 43, (S)-1-(2-hydroxyethyl)-3-(4-(4-(3-methylmorpholino)-6-(pyridin-2-yl)pyrimidin-2-yl)phenyl)urea]
not listed: kinases (kinome) [1]
> 10 µM: all other assays above

C[C@H]1COCCN1c1nc(-c2ccc(NC(=O)NC3CC3)cc2)cc(-c2cccnc2S(C)(=O)=O)n1 [Example 46, (S)-1-cyclopropyl-3-(4-(2-(3-methylmorpholino)-6-(2-(methylsulfonyl)pyridin-3-yl)pyrimidin-4-yl)phenyl)urea]
> 10 µM: all assays above

C[C@H]1COCCN1c1nc(-c2ccc(NC(=O)N[C@H]3CCC[C@@H]3O)cc2)cc(-c2cc(F)ccc2S(C)(=O)=O)n1 [Example 76, 1-(4-(6-(5-fluoro-2-(methylsulfonyl)phenyl)-2-((S)-3-methylmorpholino)pyrimidin-4-yl)phenyl)-3-((1S,2S)-2-hydroxycyclopentyl)urea]
not listed: kinases (kinome) [7]
> 10 µM: all other assays above
